In US5668121A, “Glutamate (NMDA) receptor antagonists” (Warner-Lambert Company, priority 1995, dated 1997):

Tests used:
[1] = biological target: glutamate recognition site of the NMDA receptor; assay: [3H]-glutamate receptor binding assay, synaptosomal membrane from rat cortex; conditions: for IC50: rat cortex synaptosomal membrane, read-out: affinity in [3H]-glutamate binding assay (ability to displace 50% of the radioligand)
Description: (§1) Receptor binding experiments were performed using synaptosomal membrane from rat cortex according to means described in the literature.
(§2) Moreover, Bigge, et al., J. Med. Chem., 32 1580 (1989) discloses a [^3 H]-CCP binding assay result of 3.3 μM for the unsubstituted 5-(phosphonomethyl)-phenylalanine compound.

[2] = biological target: glutamate recognition site of the NMDA receptor; assay: [3H]-CGP 39653 receptor binding assay, synaptosomal membrane from rat cortex; conditions: read-out: affinity in [3H]-CGP binding assay (ability to displace 50% of the radioligand)
Description: as §1, §2

[3] = test system: electroshock induced convulsions; assay: Electroshock induced convulsions in the mouse; assay type: in vivo
[4] = biological target: T1, neutral amino acid transporter (Cricetulus griseus, UniProt G3GRU9); assay: Competition with [3H]-L-phenylalanine for uptake into CHO cells; assay type: cell-based, Chinese hamster; conditions: 20 μM [3H]-L-phenylalanine
T1 construct: uptake into Chinese hamster ovary (CHO) cells; endogenous in cells; host or cells: Chinese hamster ovary (CHO) cells
T1 sequence (G3GRU9 1-506): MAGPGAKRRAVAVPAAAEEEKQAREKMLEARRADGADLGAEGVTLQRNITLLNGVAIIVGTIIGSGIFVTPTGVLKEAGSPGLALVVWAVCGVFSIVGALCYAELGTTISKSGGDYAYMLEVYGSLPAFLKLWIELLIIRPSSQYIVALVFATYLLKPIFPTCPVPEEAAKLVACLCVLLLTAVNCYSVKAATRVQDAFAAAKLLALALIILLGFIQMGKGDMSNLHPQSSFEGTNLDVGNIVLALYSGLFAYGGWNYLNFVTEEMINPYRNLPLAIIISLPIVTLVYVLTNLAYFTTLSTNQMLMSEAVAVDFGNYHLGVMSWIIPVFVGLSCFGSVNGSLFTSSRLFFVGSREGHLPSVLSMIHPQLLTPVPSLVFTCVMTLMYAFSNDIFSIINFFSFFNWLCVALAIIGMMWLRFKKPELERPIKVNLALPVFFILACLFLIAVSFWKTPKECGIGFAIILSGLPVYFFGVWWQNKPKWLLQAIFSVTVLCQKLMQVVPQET
T1 sequence (A0A9J7CH39 1-533 partner): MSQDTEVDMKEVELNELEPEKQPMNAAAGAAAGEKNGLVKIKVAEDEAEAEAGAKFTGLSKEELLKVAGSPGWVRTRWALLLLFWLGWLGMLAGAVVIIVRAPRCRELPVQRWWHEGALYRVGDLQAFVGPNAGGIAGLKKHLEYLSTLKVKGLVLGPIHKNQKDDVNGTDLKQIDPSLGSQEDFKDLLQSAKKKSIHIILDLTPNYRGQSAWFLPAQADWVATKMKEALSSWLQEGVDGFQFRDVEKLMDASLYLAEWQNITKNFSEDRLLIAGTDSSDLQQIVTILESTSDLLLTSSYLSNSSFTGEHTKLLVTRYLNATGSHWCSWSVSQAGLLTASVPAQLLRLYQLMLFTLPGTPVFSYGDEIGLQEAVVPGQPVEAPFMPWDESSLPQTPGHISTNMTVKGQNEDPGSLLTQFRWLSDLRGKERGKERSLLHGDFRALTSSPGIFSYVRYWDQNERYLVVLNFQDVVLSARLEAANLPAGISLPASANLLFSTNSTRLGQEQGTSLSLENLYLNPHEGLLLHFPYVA
Description: Transport capacity was determined by measuring the ability of these compounds to compete with L-phenylalanine for uptake into Chinese hamster ovary (CHO) cells. All transport studies were performed in the presence of 20 μM [^3 H]-L-phenylalanine and a varying amount of the inventive compound. The capacity of the compound for transport was evaluated by its ability to reduce the transport of phenylalanine. The compounds were determined to be either substrates or not substrates of the neutral amino acid transporter,and have KM values of between 20 and 500 μM.

NMDA receptor = conditions: read-out: [3H]-CCP binding assay result; cited from earlier work

NC(Cc1cc(CP(=O)(O)O)cc(-c2ccccc2)c1)C(=O)O (single isomer, unassigned) [(+)-α-amino-3-(5-phosphonomethyl-[1,1'-biphenyl]-3-yl)propanoic acid, reference compound]
IC50 [1]: 0.115 µM
IC50 [2]: 0.098 µM

N[C@@H](Cc1cc(CP(=O)(O)O)cc(-c2cccc3ccccc23)c1)C(=O)O [3-(1-Naphthalenyl)-5-(phosphonomethyl)-L-phenylalanine]
improvement in potency, as measured by binding assays, over prior art NMDA receptor antagonists ([1]; [3H]-glutamate and [3H]-CGP binding, comparison with prior art compounds): at least a ten to thirty fold, and up to a several hundred fold improvement in potency
IC50 [1]: 0.004 µM
ED50 ([3]; iv, 50 mA 200 ms corneal shock, read-out: ED50, inhibition of hindlimb extension): < 1 mg/kg
anticonvulsant activity after oral administration ([3]; oral): demonstrates activity after oral administration with an extended duration of action
inhibition of phenylalanine transport [4]: inhibited phenylalanine transport in CHO cells
IC50 [2]: 0.008 µM

N[C@@H](Cc1cccc(CP(=O)(O)O)c1)C(=O)O [5-(phosphonomethyl)-phenylalanine]
IC50 (NMDA receptor): 3.3 µM
